Data on 3 compounds can be found in US20240294495A1, “COMPOUNDS THAT MEDIATE PROTEIN DEGRADATION AND METHODS OF USE THEREOF” (Monte Rosa Therapeutics, Inc., priority 2021, published 2024).

One may read the IC50 as the concentration that inhibits the measured activity by half. What is called DC50 is the concentration giving 50% degradation.

Assay [1] has as its target CRBN-DDB1 (Homo sapiens, UniProt Q96SW2). Nature of the assay: Compound binding to CRBN by HTRF assay. The settings on record: CRBN-DDB1 2.5 nM, Cy5-Thalidomide 100 nM probe, 30 min incubation; read-out: HTRF Class (Cereblon binding, HTRF IC50). A general note: TR-FRET usually uses a lanthanide donor and a delayed reading to cut background.
In assay [2] the target is T1, GSPT1 (Homo sapiens, UniProt P15170+Q96SW2).
T1 construct: CAL-51 cells were purchased from DSMZ (cat. Number ACC302); endogenous in cells; host or cells: CAL-51 (DSMZ ACC302)
T1 sequence (P15170 whole entry): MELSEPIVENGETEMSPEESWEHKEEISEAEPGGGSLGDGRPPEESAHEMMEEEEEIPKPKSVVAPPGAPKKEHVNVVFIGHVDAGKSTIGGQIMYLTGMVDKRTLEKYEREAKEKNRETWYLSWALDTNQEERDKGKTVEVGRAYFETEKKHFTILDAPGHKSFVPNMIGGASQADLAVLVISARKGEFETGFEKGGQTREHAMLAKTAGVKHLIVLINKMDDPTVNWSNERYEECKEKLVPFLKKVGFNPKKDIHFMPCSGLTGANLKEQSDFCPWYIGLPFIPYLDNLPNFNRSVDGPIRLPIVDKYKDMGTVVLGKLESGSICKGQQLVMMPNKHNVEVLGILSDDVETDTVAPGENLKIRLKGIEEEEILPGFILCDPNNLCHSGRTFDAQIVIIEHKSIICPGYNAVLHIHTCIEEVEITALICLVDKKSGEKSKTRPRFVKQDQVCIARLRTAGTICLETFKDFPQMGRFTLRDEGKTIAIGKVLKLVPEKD
T1 sequence (Q96SW2 whole entry): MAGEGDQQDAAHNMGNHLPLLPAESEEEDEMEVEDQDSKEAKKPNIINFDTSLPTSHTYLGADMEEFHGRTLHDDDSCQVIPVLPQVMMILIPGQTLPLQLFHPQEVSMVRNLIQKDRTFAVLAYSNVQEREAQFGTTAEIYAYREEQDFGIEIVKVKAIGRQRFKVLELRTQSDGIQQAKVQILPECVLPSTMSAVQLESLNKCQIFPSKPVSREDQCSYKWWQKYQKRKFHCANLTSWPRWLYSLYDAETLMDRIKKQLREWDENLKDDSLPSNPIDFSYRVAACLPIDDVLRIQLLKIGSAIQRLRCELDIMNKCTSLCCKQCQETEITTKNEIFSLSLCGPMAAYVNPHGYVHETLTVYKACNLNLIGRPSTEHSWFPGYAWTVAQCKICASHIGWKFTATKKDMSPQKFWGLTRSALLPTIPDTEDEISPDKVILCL
T1 sequence (Q16531 2-1140 partner limits assumed): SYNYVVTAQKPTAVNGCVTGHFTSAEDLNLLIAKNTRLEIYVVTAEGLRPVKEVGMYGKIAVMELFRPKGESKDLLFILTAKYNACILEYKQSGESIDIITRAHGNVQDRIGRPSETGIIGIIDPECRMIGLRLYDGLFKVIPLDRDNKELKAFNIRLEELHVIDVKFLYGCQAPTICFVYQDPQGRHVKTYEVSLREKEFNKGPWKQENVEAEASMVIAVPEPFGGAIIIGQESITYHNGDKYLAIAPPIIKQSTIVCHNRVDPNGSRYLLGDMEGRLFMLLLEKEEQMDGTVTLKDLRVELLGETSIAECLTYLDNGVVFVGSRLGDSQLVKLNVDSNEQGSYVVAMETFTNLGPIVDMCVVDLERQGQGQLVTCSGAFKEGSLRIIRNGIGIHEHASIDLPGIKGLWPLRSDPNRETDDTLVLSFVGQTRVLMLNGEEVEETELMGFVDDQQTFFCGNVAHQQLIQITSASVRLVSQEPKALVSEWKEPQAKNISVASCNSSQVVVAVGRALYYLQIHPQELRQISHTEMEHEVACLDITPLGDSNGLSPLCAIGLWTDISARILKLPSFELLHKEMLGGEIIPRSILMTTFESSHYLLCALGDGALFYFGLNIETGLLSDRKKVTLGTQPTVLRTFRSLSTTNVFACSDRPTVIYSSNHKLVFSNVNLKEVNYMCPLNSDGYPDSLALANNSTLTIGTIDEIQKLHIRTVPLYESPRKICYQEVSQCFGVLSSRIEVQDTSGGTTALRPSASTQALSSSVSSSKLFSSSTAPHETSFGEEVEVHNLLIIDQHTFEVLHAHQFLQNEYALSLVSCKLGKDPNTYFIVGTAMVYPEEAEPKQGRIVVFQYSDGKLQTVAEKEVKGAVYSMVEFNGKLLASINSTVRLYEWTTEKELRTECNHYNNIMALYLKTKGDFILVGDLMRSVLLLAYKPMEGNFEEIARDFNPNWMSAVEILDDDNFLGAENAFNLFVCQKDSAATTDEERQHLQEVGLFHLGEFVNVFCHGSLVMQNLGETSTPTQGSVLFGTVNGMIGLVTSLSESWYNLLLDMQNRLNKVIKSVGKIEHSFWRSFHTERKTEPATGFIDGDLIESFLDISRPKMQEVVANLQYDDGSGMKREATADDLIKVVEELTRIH
Nature of the assay: Immunofluorescence assay for GSPT1 degradation in CAL-51 cells. The settings on record: 6 h treatment, read-out: IF Class (GSPT1 degradation, DC50). Format: cell-based.

Chain of CRBN-DDB1 (Q96SW2 whole entry): as the sequence (Q96SW2 whole entry) above
Chain of CRBN-DDB1 (Q16531 whole entry partner): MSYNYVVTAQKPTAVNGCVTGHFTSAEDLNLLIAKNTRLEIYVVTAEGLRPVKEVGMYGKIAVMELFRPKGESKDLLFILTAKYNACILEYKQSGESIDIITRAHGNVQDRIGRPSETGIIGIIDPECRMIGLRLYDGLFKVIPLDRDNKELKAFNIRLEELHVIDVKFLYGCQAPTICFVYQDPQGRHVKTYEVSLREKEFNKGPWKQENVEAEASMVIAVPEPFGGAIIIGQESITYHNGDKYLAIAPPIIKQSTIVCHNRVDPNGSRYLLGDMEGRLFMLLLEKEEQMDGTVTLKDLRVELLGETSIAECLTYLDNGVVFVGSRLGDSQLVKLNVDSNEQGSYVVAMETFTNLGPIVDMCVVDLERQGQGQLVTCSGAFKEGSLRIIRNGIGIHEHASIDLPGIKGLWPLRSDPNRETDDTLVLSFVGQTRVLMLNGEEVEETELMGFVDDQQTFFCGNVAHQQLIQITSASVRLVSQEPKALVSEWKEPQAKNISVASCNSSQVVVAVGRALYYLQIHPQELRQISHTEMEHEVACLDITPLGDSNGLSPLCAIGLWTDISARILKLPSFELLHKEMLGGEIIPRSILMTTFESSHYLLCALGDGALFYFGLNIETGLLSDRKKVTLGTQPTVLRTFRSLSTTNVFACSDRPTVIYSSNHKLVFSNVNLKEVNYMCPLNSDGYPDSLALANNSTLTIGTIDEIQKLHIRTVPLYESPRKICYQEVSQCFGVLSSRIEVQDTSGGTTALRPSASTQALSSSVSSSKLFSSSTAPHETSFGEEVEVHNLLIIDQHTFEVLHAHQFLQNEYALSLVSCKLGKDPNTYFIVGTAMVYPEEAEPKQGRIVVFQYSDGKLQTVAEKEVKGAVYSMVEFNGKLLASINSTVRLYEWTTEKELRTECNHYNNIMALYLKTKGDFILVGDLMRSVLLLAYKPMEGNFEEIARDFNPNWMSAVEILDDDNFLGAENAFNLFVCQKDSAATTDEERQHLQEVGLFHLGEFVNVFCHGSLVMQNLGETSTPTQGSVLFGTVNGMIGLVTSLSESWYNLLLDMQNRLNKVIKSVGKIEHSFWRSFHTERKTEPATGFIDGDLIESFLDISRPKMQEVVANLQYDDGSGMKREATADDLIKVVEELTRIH

Take `O=C1CCC(c2c(F)cc(N3CC(NC(=O)Cc4ccc(C5CCC5)cc4)C3)cc2F)C(=O)N1` (stereo not drawn) [Compound 20, 2-(4-cyclobutylphenyl)-N-(1-(4-(2,6-dioxopiperidin-3-yl)-3,5-difluorophenyl)azetidin-3-yl)acetamide]: the IC50 in assay [1] was in the range of 100 to 1000 nM. For the same compound, the half-maximal degradation concentration (DC50) in assay [2] is more than 300 nM.
`O=C1CCC(c2c(F)cc(N3CC(NC(=O)Cc4ccc(Cl)cn4)C3)cc2F)C(=O)N1` (stereo not drawn) [Compound 10, 2-(5-chloropyridin-2-yl)-N-(1-(4-(2,6-dioxopiperidin-3-yl)-3,5-difluorophenyl)azetidin-3-yl)acetamide]: the IC50 in assay [1] is less than 100 nM. Besides, the 50% degradation concentration (DC50) in assay [2] was more than 300 nM.
The matching figures for `O=C1CCC(c2c(F)cc(N3CC(NC(=O)Cc4ccc(Cl)c(F)c4)C3)cc2F)C(=O)N1` (stereo not drawn) [Compound 14, 2-(4-chloro-3-fluorophenyl)-N-(1-(4-(2,6-dioxopiperidin-3-yl)-3,5-difluorophenyl)azetidin-3-yl)acetamide]: 100 to 1000 nM and more than 300 nM.
